Reference: the supplement of paper PMC13380429

Key:
Conditions in all cases: 72 h
[1] = system: U2OS; assay: cell viability relative to DMSO; higher = less toxic
[2] = system: Caco-2; assay: as above
[3] = system: HepG2; assay: as above
[4] = system: Calu-3; assay: as above
[5] = system: Vero E6; assay: as above
[6] = system: U2OS; assay: drug sensitivity score (DSS) for viability; higher = more toxic; extreme values may be limits of the assay
[7] = system: Caco-2; assay: as above
[8] = system: HepG2; assay: as above
[9] = system: Calu-3; assay: as above
[10] = system: Vero E6; assay: as above
[11] = system: U2OS; assay: relative viability EC50 (midpoint between 100% and the lowest measured viability); higher = less toxic
[12] = system: Caco-2; assay: as above
[13] = system: HepG2; assay: as above
[14] = system: Calu-3; assay: as above
[15] = system: Vero E6; assay: as above

CC(C)=CCC[C@](C)(O[C@@H]1O[C@H](CO)[C@@H](O)[C@H](O)[C@H]1O)[C@H]1CC[C@]2(C)[C@@H]1[C@H](O)C[C@@H]1[C@@]3(C)CC[C@H](O)C(C)(C)[C@@H]3CC[C@]12C [ginsenoside-C-K]
cell viability ([1]; 1 nM): 99.4%
cell viability ([1]; 10 nM): 94.7%
cell viability ([1]; 100 nM): 99.7%
cell viability ([1]; 1000 nM): 97.5%
cell viability ([1]; 10000 nM): 99.3%
cell viability ([2]; 1 nM): 91.7%
cell viability ([2]; 10 nM): 104%
cell viability ([2]; 100 nM): 94.5%
cell viability ([2]; 1000 nM): 96.2%
cell viability ([2]; 10000 nM): 102%
cell viability ([3]; 1 nM): 108%
cell viability ([3]; 10 nM): 111%
cell viability ([3]; 100 nM): 106%
cell viability ([3]; 1000 nM): 92.7%
cell viability ([3]; 10000 nM): 85.9%
cell viability ([4]; 1 nM): 89.3%
cell viability ([4]; 10 nM): 97.3%
cell viability ([4]; 100 nM): 98.9%
cell viability ([4]; 1000 nM): 101%
cell viability ([4]; 10000 nM): 99.4%
cell viability ([5]; 1 nM): 109%
cell viability ([5]; 10 nM): 99.7%
cell viability ([5]; 100 nM): 103%
cell viability ([5]; 1000 nM): 98.4%
cell viability ([5]; 10000 nM): 98.1%
drug sensitivity score [6]: 0
drug sensitivity score [7]: 0
drug sensitivity score [8]: 0.7
drug sensitivity score [9]: 0
drug sensitivity score [10]: 0
relative viability EC50 [11]: > 10 µM
relative viability EC50 [12]: > 10 µM
relative viability EC50 [13]: > 10 µM
relative viability EC50 [14]: > 10 µM
relative viability EC50 [15]: > 10 µM

Clc1ccc(C(c2ccc(Cl)cc2)C(Cl)(Cl)Cl)cc1 [4,4'-DDT]
cell viability ([1]; 1 nM): 103%
cell viability ([1]; 10 nM): 101%
cell viability ([1]; 100 nM): 100%
cell viability ([1]; 1000 nM): 97.3%
cell viability ([1]; 10000 nM): 106%
cell viability ([2]; 1 nM): 99.1%
cell viability ([2]; 10 nM): 102%
cell viability ([2]; 100 nM): 105%
cell viability ([2]; 1000 nM): 95.2%
cell viability ([2]; 10000 nM): 97.8%
cell viability ([3]; 1 nM): 98.5%
cell viability ([3]; 10 nM): 104%
cell viability ([3]; 100 nM): 97.5%
cell viability ([3]; 1000 nM): 95.8%
cell viability ([3]; 10000 nM): 98.2%
cell viability ([4]; 1 nM): 99.1%
cell viability ([4]; 10 nM): 110%
cell viability ([4]; 100 nM): 93%
cell viability ([4]; 1000 nM): 105%
cell viability ([4]; 10000 nM): 95.6%
cell viability ([5]; 1 nM): 103%
cell viability ([5]; 10 nM): 105%
cell viability ([5]; 100 nM): 105%
cell viability ([5]; 1000 nM): 102%
cell viability ([5]; 10000 nM): 99.9%
drug sensitivity score [6]: 0
drug sensitivity score [7]: 0
drug sensitivity score [8]: 0
drug sensitivity score [9]: 0
drug sensitivity score [10]: 0
relative viability EC50 [11]: > 10 µM
relative viability EC50 [12]: > 10 µM
relative viability EC50 [13]: > 10 µM
relative viability EC50 [14]: > 10 µM
relative viability EC50 [15]: > 10 µM

C[C@@H]1NC(=O)[C@@H](N)CNC(=O)[C@H](C2CCNC(=N)N2)NC(=O)/C(=C/NC(N)=O)NC(=O)[C@H](CNC(=O)CC(N)CCCN)NC1=O.N=C1NCC[C@H]([C@@H]2NC(=O)/C(=C/NC(N)=O)NC(=O)[C@H](CNC(=O)C[C@@H](N)CCCN)NC(=O)[C@H](CO)NC(=O)[C@@H](N)CNC2=O)N1 [capreomycin]
cell viability ([1]; 1 nM): 103%
cell viability ([1]; 10 nM): 100%
cell viability ([1]; 100 nM): 102%
cell viability ([1]; 1000 nM): 96%
cell viability ([1]; 10000 nM): 106%
cell viability ([2]; 1 nM): 96.2%
cell viability ([2]; 10 nM): 94.8%
cell viability ([2]; 100 nM): 98%
cell viability ([2]; 1000 nM): 95%
cell viability ([2]; 10000 nM): 99.3%
cell viability ([3]; 1 nM): 94.4%
cell viability ([3]; 10 nM): 102%
cell viability ([3]; 100 nM): 105%
cell viability ([3]; 1000 nM): 108%
cell viability ([3]; 10000 nM): 99.1%
cell viability ([4]; 1 nM): 104%
cell viability ([4]; 10 nM): 100%
cell viability ([4]; 100 nM): 105%
cell viability ([4]; 1000 nM): 95.3%
cell viability ([4]; 10000 nM): 108%
cell viability ([5]; 1 nM): 98.8%
cell viability ([5]; 10 nM): 105%
cell viability ([5]; 100 nM): 102%
cell viability ([5]; 1000 nM): 94.1%
cell viability ([5]; 10000 nM): 94.8%
drug sensitivity score [6]: 0
drug sensitivity score [7]: 0
drug sensitivity score [8]: 0
drug sensitivity score [9]: 0
drug sensitivity score [10]: 0
relative viability EC50 [11]: > 10 µM
relative viability EC50 [12]: > 10 µM
relative viability EC50 [13]: > 10 µM
relative viability EC50 [14]: > 10 µM
relative viability EC50 [15]: > 10 µM
